In the experiment the target is T1, D1R (Homo sapiens, UniProt P21728).
T1 construct: gene DRD1; cDNA from Missouri S&T cDNA Resource Center, transiently expressed in HEK293T/17 with Golf (Gαolf, Venus-Gβ2γ7), Ric-8B and masGRK3ct-Nluc BRET reporter
The experiment is described as follows: BRET G protein activation assay (masGRK3ct-Nluc / Venus-Gβ[…]γ[…]), HEK293T/[…]. The experiment is classed as cell-based. The settings on record: antagonist, […], against […] dopamine; Golf co-expressed.

T1 sequence (P21728 whole entry): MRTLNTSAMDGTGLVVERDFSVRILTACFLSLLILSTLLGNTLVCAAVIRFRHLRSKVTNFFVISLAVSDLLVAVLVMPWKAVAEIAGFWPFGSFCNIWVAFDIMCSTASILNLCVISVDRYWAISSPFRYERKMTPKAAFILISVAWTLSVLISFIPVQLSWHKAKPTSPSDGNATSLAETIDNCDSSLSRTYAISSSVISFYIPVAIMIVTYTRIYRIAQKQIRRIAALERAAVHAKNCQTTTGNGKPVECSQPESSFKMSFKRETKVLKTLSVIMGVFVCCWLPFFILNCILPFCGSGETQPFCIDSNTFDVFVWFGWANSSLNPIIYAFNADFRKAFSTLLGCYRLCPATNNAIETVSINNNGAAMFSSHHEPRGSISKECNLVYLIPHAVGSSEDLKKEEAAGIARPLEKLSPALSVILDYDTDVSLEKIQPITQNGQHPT

In the case of `CN1CCc2cc(Cl)c(O)cc2[C@H]2c3ccccc3CC[C@@H]21` [SCH39166], the “BRET G protein activation assay (masGRK3ct-Nluc / Venus-Gβ2γ7), HEK293T/17” value is “application of an antagonist SCH39166 facilitates complex re-association and quenching of the BRET response”.

(Values after article PMC4728126, “Stable G protein-effector complexes in striatal neurons: mechanism of assembly and role in neurotransmitter signaling” (eLife, 2015).)
